This is an account of results in US20130039928A1, “COMPOSITIONS AND METHODS FOR REVERSING CORTICOSTEROID RESISTANCE OR TREATING RESPIRATORY INFECTIONS” (priority 2010, published 2013).

One experiment has as its system THP-1 macrophages. In words: Phagocytosis of FITC-PA in THP-1 macrophages. Type of experiment: cell-based, human. The method, then: BMDM were isolated by culturing bone marrow cells in the presence of 10 ng/ml granulocyte-macrophage colony-stimulating factor (PeproTech) for 7 days. Murine macrophages were cultured in RPMI 1640 medium supplemented with 10% FBS and 1% penicillin-streptomycin. The human THP-1 cell line (American Type Culture Collection, Manassas, Va.) was grown in RPMI 1640 medium supplemented with 10% non-heat-inactivated fetal bovine serum and β-mercaptoethanol per manufacturer's instructions. Macrophage differentiation occurred through supplementation with 20 ng/ml Phorbol 12-myristate 13-acetate (Sigma Aldrich, St. Louis, Mo.) for 48 h.
Bacterial phagocytosis was quantified using a flow cytometry analysis.
THP-1 cells were infected with lentivirus particles containing MARCO shRNA (Open Biosystems, Huntsville, Ala.). Puromycin supplemented medium ensured positive selection of lentivirus plasmid-expres sing cells, and knockdown of MARCO mRNA and protein was confirmed by both real-time PCR and western blot.

A further experiment concerns MARCO. Particulars: alveolar macrophages from mice exposed to CS. The method, then:
C57BL/6J mice were housed under controlled conditions for temperature and humidity, using a 12-hour light/dark cycle. At 8 weeks of age, mice were exposed to CS for (2.5 h/day for 5 days/week) for 1 week or 6 months using a machine that produces cigarette smoke (TE-10, Teague Enterprises) and reference cigarettes (2R4F) with a total suspended particle concentration of 250 mg/m^3 as previously described (T. E. Sussan et al., Proc Natl Acad Sci USA, (Dec. 22, 2008)). Following exposure to CS, mice were inoculated with PA or NTHI at a dose of 10^3 CFU in 50 μl of PBS intranasally. For sulforaphane administration (0.5 mg/mouse of R, S-sulforaphane in PBS), a nebulizer (Aerogen, Inc., Galway, Ireland) designed specifically for small animals was used.

A further experiment deals with Pseudomonas aeruginosa. To be noted: 0.5 mg/mouse/day nebulizer, three days, 4 hours after PA, compared to vehicle. The method, then:
The efficacy of sulforaphane to improve bacterial phagocytosis and clearance in the lungs of mice exposed to cigarette smoke was determined. After 6 months or 1 week of CS or air exposure, mice were treated with sulforaphane and or vehicle (0.5 mg/mouse/day) for three consecutive days using an Aeroneb® nebulizer (Aerogen, Inc., Galway, Ireland). Mice were challenged intranasally with Pseudomonas aeruginosa 24 hours after the last dose of sulforaphane, and bacterial burden in BALF was analyzed 4 hours later.
C57BL/6J mice were housed under controlled conditions for temperature and humidity, using a 12-hour light/dark cycle. At 8 weeks of age, mice were exposed to CS for (2.5 h/day for 5 days/week) for 1 week or 6 months using a machine that produces cigarette smoke (TE-10, Teague Enterprises) and reference cigarettes (2R4F) with a total suspended particle concentration of 250 mg/m^3 as previously described (T. E. Sussan et al., Proc Natl Acad Sci USA, (Dec. 22, 2008)). Following exposure to CS, mice were inoculated with PA or NTHI at a dose of 10^3 CFU in 50 μl of PBS intranasally. […]
BAL fluid analysis and cell counts with differential staining were carried out as described previously (T. Rangasamy et al., J Clin Invest 114, 1248 (November, 2004)). […] After 24 h, the number of CFU was counted.

Experiment [1] deals with HDAC2. Type of experiment: cell-based, human. To be noted: COPD alveolar macrophages. The method, then: (§1) For inducing corticosteroid resistance, PMs were exposed to cigarette smoke condensate (CSC, 100 μg/ml; Murty Pharmaceuticals, Lexington, Ky.) for 16 h. Exposure to S-nitrosoglutathione (GSNO, 10 μM) was limited to 4 h. […] For assessing corticosteroid responsiveness, macrophages were incubated with dexamethasone (1 μM, Sigma) for 1 h followed by LPS (100 ng/ml, Sigma) for additional 4 h.
All immunoblots were performed by using protocols as described previously (Barnes, P. J., N Engl J Med 343, 269-280 (2000)). Rabbit anti-HDAC2 antibody from Santa Cruz Biotechnology (Santa Cruz, Calif.) was used at 1:500 dilutions. Rabbit anti-5-nitroso-cysteine antibody from Alpha diagnostics was used at 1:500 dilutions. Rabbit anti-nitro-tyrosine antibody from Cell Signaling Technology, was used at 1:250 dilution. Rabbit anti-ubiquitin antibody from Santa Cruz Biotechnology (Santa Cruz, Calif.) was used at 1:1000 dilutions. Rabbit anti-GR antibody from Santa Cruz Biotechnology (Santa Cruz, Calif.) was used at a dilution of 1:1000. Rabbit anti-MMP9 antibody from Sigma Aldrich was used at 1:500 dilutions. Rabbit anti-acetyl-lysine antibody from Abcam was used at 1:750 dilutions. Rabbit anti-lamin-B1 from Santa Cruz Biotechnology (Santa Cruz, Calif.) was used at 1:1000 dilutions as a loading control. The Image J program was used for densitometry analyses.
Total RNA was extracted from the cells by lysis and specific binding to a silica membrance (Qiagen RNeasy kit, Qiagen, Valencia, Calif.), and qRT-PCR was performed by using primers and probe sets for human IL-8, NQO1, GCLM, and iNOS (Assay-on-Demand, Applied Biosystems, Foster City, Calif.). A real-time fluorescent PCR system (ABI 7000 Taqman system, Applied Biosystems) was used to perform these assays. β-actin was used as the normalization control.

The subject of experiment [2] is HDAC2. Particulars: CSC-exposed PMs. The method, then:
Mice (C57BL/6 strain, 8-10 weeks old) were used for the studies. Exposure to CS (1 month) was carried out as described previously (Malhotra, D., et al., Am J Respir Crit Care Med 178, 592-604 (2008)). Residential peritoneal macrophages (PMs) isolation was carried out as described previously (Singh, A., et al., PLoS Med 3, e420 (2006)). Alveolar macrophages from mouse were isolated from bronchoalveolar lavage (BAL) fluid (Crimi, E., et al., Free Radic Biol Med 40, 398-406 (2006)).
as §1

Molecules are shown by their SMILES. Entries after “also recorded” stand apart in the source; their conditions may differ. Where two headings read alike, the source gives them in different places.

On to `C[S+]([O-])CCCCN=C=S` (centres unmarked) [sulforaphane], for which the “phagocytosis of FITC-Pseudomonas aeruginosa” value with THP-1 macrophages (THP-1 macrophages transfected with Luc-shRNA) is given as “significantly elevated phagocytosis”; in the experiment with THP-1 macrophages (THP-1 macrophages with MARCO-shRNA), “but not in MARCO-shRNA”. The MARCO expression entry in the experiment on MARCO was “increased MARCO expression”. For the same molecule, the “bacterial burden in lungs” value in the experiment with Pseudomonas aeruginosa (1 week CS) and with Pseudomonas aeruginosa (6 months CS) was “significantly reduced bacterial burden” throughout. For the same molecule, the “HDAC2 mRNA levels” value with HDAC2 [1] is recorded as “without altering the levels of HDAC2 mRNA; also recorded: no effect on HDAC2 mRNA expression”. For the same molecule, in the experiment with HDAC2 [1], the HDAC2 protein levels entry is reported as “up-regulated HDAC2 protein levels”. Further, the “levels of SNO-HDAC2” value in the experiment on HDAC2 [2] is listed as “significant reduction in the levels of SNO-HDAC2”.
